Where two headings read alike, the source gives them in different places.
Assays:
[1] = test system: fetal alveolar type II (ATII) cells; test: In vivo ATII cell proliferation assay (PCNA and SP-C double labeling) after in utero nicotine; design: species or system Sprague-Dawley rat
fetal ATII cells = test: Ex vivo ATII cell proliferation assay (tetrazolium dye) after in utero nicotine; design: species or system Sprague-Dawley rat
Description: Pathogen-free timed (embryonic day 0=day of mating) pregnant Sprague-Dawley rats (200-250 g body wt) were obtained from Charles River (Hollister, Calif.) at embryonic day 3 and allowed to acclimatize until embryonic day 6. […] The fetuses were extracted by cesarean section, and the lungs were snap frozen for later analysis or processed for ATII cell or fibroblast culture. […] Louis, Mo.; 0.25 mg/kg). All studies were approved by the Los Angeles Biomedical Research Institute Institutional Review Board and were conducted in accordance with the National Institutes of Health Guide for the Care and Use of Laboratory Animals. ATII cells were isolated using differential adherence in monolayer culture, as described previously (Battenburg et al. (1990) Biochim. Biophys. Acta 960: 441-456). Briefly, three to five […] used per preparation. The fetuses were delivered via cesarean section, and fetal lungs were placed in Hanks' balanced salt solution without calcium and magnesium. […] A Teflon stirring bar was used to further dissociate the lungs by mechanical disruption of the tissue during incubation in a 37° C. water bath. After the tissue was dispersed into a unicellular suspension, the cells were pelleted at 500 g for 10 min at room temperature in a 50-ml polystyrene centrifuge tube. […] The cell suspension was then added to 75-cm^2 (T-75) culture flasks for 30-60 min to allow for differential adherence of lung fibroblasts. The unattached cells were then transferred to another T-75 culture flask for an additional 60 min. After this second culture period, the medium and nonadherent cells were removed from the flask and diluted with 1 vol of culture medium. This diluted suspension was cultured overnight in a T-75 culture flask at 37° C. in a CO2 incubator to allow the ATII cells to adhere. […] According to the manufacturer's protocol, cell proliferation was determined by the tetrazolium dye assay, which is based on the conversion of a tetrazolium salt to a red formazan product by living cells (Cell Proliferation Assay, Promega).

fetal rat lung explants = test: In vitro ATII cell proliferation in lung explants (PCNA and SP-C labeling); format: cell-based
Description: Explants derived from three to five litters of rats were used for each experiment during the course of the studies. Lungs were harvested from fetal rats under sterile conditions. The lung tissue was chopped into −1-mm cubes and incubated in 0.5 ml of Waymouth's MB-252/1 medium containing penicillin (100 U/ml)-streptomycin (100 U/ml) and Fungizone (2.5 μg/ml) in six-well plates while rocking on an oscillating platform (3 cycles/min) in 5% CO2-95% air at 37° C. The explants were allowed to attach for 1-2 h.
Cultured ATII cells or explants were treated with nicotine under various experimental conditions (see below), and cell proliferation was determined by Cell Proliferation Assay (Promega) or dual PCNA and SP-C labeling, respectively (see above).

ATII cells [2] = test: Phospholipid synthesis ([3H]choline incorporation into saturated phosphatidylcholine) by ATII cells after in utero nicotine; format: in vivo, Sprague-Dawley rat
Description: (§1) Incorporation of [methyl-3H]choline chloride (NEN Dupont) into saturated phosphatidylcholine was determined in monolayers of cultured explants and ATII cells. […] After incubation, explants and cells were washed three times with ice-cold PBS. The explants and the scraped cells were thoroughly homogenized, and the cellular lipids were extracted with chloroform-methanol (2:1) (Bligh and Dyer (1959) Can. J. Biochem. Physiol., 37: 911-917). The organic phase was dried under a stream of nitrogen at 60° C., resuspended in 0.5 ml of carbon tetrachloride containing 3.5 mg of osmium tetroxide, and left at room temperature for 15 min. The reaction mixture was redried under nitrogen and resuspended in 70 μl of chloroform-methanol (9:1, vol/vol). The lipid extracts were transferred to silica gel plates (Kodak, Rochester, N.Y.) and developed in a chloroform-methanolwater (65:25:4) solvent system. Pure dipalmitoyl phosphatidylcholine was used as the chromatographic standard. The developed plates were stained with bromothymol blue, blotted, and vacuum dried for 5 min at 90° C. Chromatogram spots corresponding to the migration of saturated phosphatidylcholine were scraped from the plates and counted by liquid scintillation spectrometry. The amounts of [methyl^3H]choline chloride incorporated into saturated phosphatidylcholine were expressed as disintegrations per minute per milligram of protein.

ATII cells [3] = test: Phospholipid synthesis ([3H]choline incorporation) by ATII cells treated in vitro; format: cell-based, rat
Description: Isolated ATII cells were cultured in DMEM+10% FBS in 6- and 96-well plates, 100-mm dishes, and T-75 flasks, as needed, and maintained at 37° C. in a humidified incubator containing 5% CO2-95% air. At 80-90% confluence, cells were processed for cell proliferation, differentiation, and metabolic studies (see below).
as §1

ATII cells [4] = test: Western analysis of CCT-α and SP-B in ATII cells after in utero nicotine; format: in vivo, Sprague-Dawley rat
Description: Pathogen-free timed (embryonic day 0=day of mating) pregnant Sprague-Dawley rats (200-250 g body wt) were obtained from Charles River (Hollister, Calif.) at embryonic day 3 and allowed to acclimatize until embryonic day 6. […] The fetuses were extracted by cesarean section, and the lungs were snap frozen for later analysis or processed for ATII cell or fibroblast culture. […] Louis, Mo.; 0.25 mg/kg). All studies were approved by the Los Angeles Biomedical Research Institute Institutional Review Board and were conducted in accordance with the National Institutes of Health Guide for the Care and Use of Laboratory Animals. Protein extraction and Western blot analysis for SP-B and choline phosphate cytidylyltransferase-α (CCT-α) were performed using standard methods. […] Chemicon) overnight at 4° C. The antibody for CCT-α (1:2,000 dilution) was a kind gift from Dr. […] (University of Iowa, Iowa City, Iowa). […] The density of the SP-B and CCT-α bands was quantified using a scanning densitometer (Eagle Eye, Stratagene).

ATII cells [5] = test: Western analysis of CCT-α and SP-B in ATII cells treated in vitro; format: cell-based, rat
Description: Protein extraction and Western blot analysis for SP-B and choline phosphate cytidylyltransferase-α (CCT-α) were performed using standard methods. […] Equal amounts of the protein from the supernatant were dissolved in electrophoresis sample buffer and subjected to SDS-polyacrylamide (4-12% gradient) gel electrophoresis followed by electrophoretic transfer to a nitrocellulose membrane. The membrane was blocked with 5% milk in 1× Tris-buffered saline containing 0.1% Tween 20 for 1 h and then incubated with rabbit anti-human SP-B polyclonal antibody (1:1,000 dilution; Chemicon) overnight at 4° C. The antibody for CCT-α (1:2,000 dilution) was a kind gift from Dr. Mallampalli (University of Iowa, Iowa City, Iowa). Subsequently, the membrane was washed with 1× Tris-buffered saline+0.1% Tween 20 and incubated with a 1:3,000 dilution of anti-rabbit horseradish peroxidase-linked whole antibody immunoglobulin G (Amersham, Arlington Heights, Ill.) for 1 h at room temperature, washed again, and developed with a chemiluminescent substrate (ECL, Amersham) following the manufacturer's protocol. The density of the SP-B and CCT-α bands was quantified using a scanning densitometer (Eagle Eye, Stratagene).

WI38 cells [6] = test: Reversal of nicotine-induced LIF-to-MYF transdifferentiation in WI38 cells, Western analysis; conditions: GW9662 1×10^−5 M pretreatment; nicotine 1×10^−9 M 7 days
Description: The human embryonic cell line WI38 was obtained from the American Type Culture Collection (Rockville, Md.). Cells were grown in minimum essential medium (MEM) +10% fetal bovine serum at 37° C. in six-well plates, two well slides, and 60-mm and 100-mm culture dishes, as needed. […] Subsequently, the cells were treated with rosiglitazone (RGZ) (1×10^−5 M) (a PPARγ agonist), PTHrP (5×10^−7 M), or DBcAMP (1×10^−5 M) for 7 days, and the expression of PTHrP receptor, PPARγ, ADRP, calponin, and cSMA was determined by Western analysis and immunohistochemistry. Simultaneously, fibroblast function was characterized by measuring their capacity to take up triglycerides. Some experiments were performed in the presence of a specific PPARγ antagonist, GW9662. Medium containing fresh chemicals was added daily, and at the end of the experimental period the cells were processed as needed.
For Western blotting, cells were lysed using an extraction buffer [10 mM tris (hydroxymethyl) aminomethane (Tris, pH 7.5), 0.25 M sucrose, 1 mM EDTA, 5 mM benzamidine, 2 mM phenylmethylsulfonyl fluoride, and 10 (j.tg/ml each of pepstatin A, aprotinin, and leupeptin], and centrifuged at 140 g for 10 min (4° C.). Equal amounts of the protein (25 μg) from the supernatant were dissolved in electrophoresis sample buffer and were subjected to sodium dodecyl sulfate-polyacrylamide (4%-12% gradient) gel electrophoresis (SDS-PAGE) followed by electrophoretic transfer to a nitrocellulose memane. The nonspecific binding of antibody was blocked by washing with Tris-buffered saline (TBS) containing 0.1% Tween 20 (TBST) and 5% milk for 1 h. The blot was then subjected to two brief washes with TBST plus 0.5% Tween 20, incubated in TBST plus 0.1% Tween 20 and the specific primary antibodies (PPARγ 1:2000, Alexis Biochemicals, San Diego, Calif.; cSMA 1:50,000, Sigma, St. Louis, Mo.: ADRP 1:3000) overnight at 4° C. Blots were then washed in TBST plus 0.1% Tween 20 and then incubated for 1 h in secondary antibody, washed, and developed with a chemiluminescent substrate [enhanced chemiluminescence (ECL); Amersham, Arlington Heights, Ill.] following the manufacturer's protocol. The densities of the specific protein bands were quantified using a scanning densitometer (Eagle Eye II still video system, Stratagene, La Jolla, Calif.).

WI38 cells [7] = test: Triglyceride uptake assay ([3H]triolein) in WI38 cells; format: cell-based, human
Description: The human embryonic cell line WI38 was obtained from American Type Culture Collection (Rockville, Md.). Cells were grown in MEM plus 10% FBS at 37° C. in six-well plates, four-well slides, and 60- and 100-mm culture dishes as needed.
The method used to quantitate triglyceride uptake by fetal rat lung fibroblasts has been described previously (Torday et al. (1995) Biochim Biophys Acta 1254: 198-206). Briefly, culture medium was replaced with DMEM containing 20% adult rat serum mixed with [3H]triolein (5 μCi/ml). The cells were incubated at 37° C. in 5% CO2+balance air for 4 h. At the termination of the incubation, the medium was decanted, the cells were rinsed twice with 1 ml of ice-cold MEM, and the cells were removed from the culture plate after a 5- to 10-min incubation with 2 ml of a 0.05% trypsin solution. An aliquot of the cell suspension was taken for protein assay (Bradford (1976) Anal Biochem 72: 248-254), and the remaining cell suspension was extracted for neutral lipid content.

PTHrP receptor = molecular target: T1, PTHrP receptor (Homo sapiens, UniProt Q03431); test: PTHrP receptor binding assay
T1 construct: 10-12 μg membrane protein; endogenous in cells; host or cells: WI38 human embryonic lung fibroblasts (inferred; the assay text only says membrane protein)
T1 sequence (Q03431 27-593): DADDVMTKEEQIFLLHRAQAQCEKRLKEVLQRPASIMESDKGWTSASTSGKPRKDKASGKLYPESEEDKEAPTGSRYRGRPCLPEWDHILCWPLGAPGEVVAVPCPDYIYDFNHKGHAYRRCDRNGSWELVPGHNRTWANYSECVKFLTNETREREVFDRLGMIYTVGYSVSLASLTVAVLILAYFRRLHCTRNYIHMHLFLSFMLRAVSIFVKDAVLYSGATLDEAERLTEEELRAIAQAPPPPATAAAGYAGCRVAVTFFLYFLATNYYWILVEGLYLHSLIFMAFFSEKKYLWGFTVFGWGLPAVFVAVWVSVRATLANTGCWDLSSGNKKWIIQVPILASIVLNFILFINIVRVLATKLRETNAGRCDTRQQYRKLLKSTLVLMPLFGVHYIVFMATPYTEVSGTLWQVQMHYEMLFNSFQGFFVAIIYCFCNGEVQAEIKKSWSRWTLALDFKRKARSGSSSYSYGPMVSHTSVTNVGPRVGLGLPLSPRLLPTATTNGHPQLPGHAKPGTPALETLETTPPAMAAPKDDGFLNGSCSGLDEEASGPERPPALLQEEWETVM
Description: The receptor binding assay was carried out as previously described (Torday and Rehan (2002) Am. J. Physiol. Lung Cell Mol. Physiol. 283: L130-L135; Torday and Rehan (2003) Cell Biochem Biophys 37: 235-246). The assay mixture, in a total volume of 0.1 ml, contained 50 mM Tris.HCl (pH 7.4), 2 mM dithiothreitol, 10 mM EDTA, 10 μg/ml each of protease inhibitors (leupeptin, pepstatin, antipain, and aprotinin), 0.5 mM phenylmethylsulfonyl fluoride, 10 mg/ml BSA, 5 mM MgCl2, […] [1251]-Tyr34-PTHrP-(1-34) (specific activity 1,064 Ci/mmol), 10-12 μg membrane protein, and 1×10-10 to 1×10^−6 M PTHrP-(1-34). Triplicate samples were incubated for 30 min at 30° C. Reactions were stopped by the addition of 0.1 ml of homogenization buffer containing 20 mg/ml of BSA and placed in ice-cold water for 30 min, followed by centrifugation at 15,000 g for 1 min. The supernatant was aspirated, and the pellet was counted for radioactive content with a gamma counter (model 1470; Wallace, Gaithersburg, Md.). Nonspecific binding was determined in the presence of 1 μM nonradioactive PTHrP-(1-34). Specific binding of [^125I]-Tyr34-PTHrP-(1-34) was calculated as total binding minus nonspecific binding and expressed as femtomoles per milligrams of protein. […] The effect of nicotine (1×10^−6 M) on PTHrP receptor binding was examined without and with the nACh receptor antagonists D-tubocurarine, α-bungarotoxin, or mecamylamine (1×10^−9 to 1×10^−6 M).

ATII cells [8] = conditions: rat, in vivo

Compound: O=C(Nc1ccccc1)c1cc([N+](=O)[O-])ccc1Cl [GW9662]
- block of the PGJ2 effect on nicotine-induced increase in ATII cell proliferation ([1]; GW-9662 0.25 mg/kg pretreatment, nicotine + PGJ2): almost completely blocked
- block of the PGJ2 effect on nicotine-induced increase in ATII cell proliferation ([1]; in utero nicotine + PGJ2): 70%
- block of the PGJ2 effect (fetal ATII cells; nicotine + PGJ2): blocked
- block of the PGJ2 effect in lung explants (fetal rat lung explants; nicotine 24 h + PGJ2): blocked
- effect on nicotine-induced increase in phospholipid synthesis (ATII cells [2]; concomitant PGJ2 alone or in combination with GW-9662, in utero): no effect
- effect on nicotine-induced increase in phospholipid synthesis (ATII cells [3]; concomitant PGJ2 alone or in combination with GW-9662, in vitro): no effect
- effect on nicotine-induced increase (CCT-α experiment) (ATII cells [4]; PGJ2 alone or in combination with GW-9662, in vivo): no effect
- effect on nicotine-induced increase in SP-B protein expression (ATII cells [4]; concomitant treatment, in utero): no effect
- effect on nicotine-induced increase (CCT-α experiment) (ATII cells [5]; PGJ2 alone or in combination with GW-9662, in vitro): no effect
- effect on nicotine-induced increase in SP-B expression (ATII cells [5]; in vitro): unaffected
- block of molecular protection by PTHrP, DBcAMP and RGZ against nicotine-induced LIF-to-MYF transdifferentiation (PPARγ, calponin) (WI38 cells [6]): completely blocked

Compound: α-bungarotoxin
- prevention of nicotine-induced decrease in triolein uptake (WI38 cells [7]): completely prevented
- prevention of nicotine-induced decrease in PTHrP binding to its receptor (PTHrP receptor): prevented

Compound: PTHrP-(7-34) amide
- binding of radioactive ligand [125I]-Tyr34-PTHrP-(1-34) (PTHrP receptor; 1 μM): inhibited

Compound: CCCCC[C@H](O)/C=C/[C@H]1C(=O)C=C[C@@H]1C/C=C\CCCC(=O)O [PGJ2, prostaglandin J2]
- block of nicotine-induced increase in ATII cell proliferation ([1]; rat, in vivo): completely blocked
- block of nicotine-induced increase in ATII proliferation (fetal ATII cells; rat, in vivo): almost completely blocked
- block of nicotine-induced increase in ATII cell proliferation in lung explants (fetal rat lung explants): blocked
- effect on nicotine-induced increase in phospholipid synthesis (ATII cells [2]; rat, in vivo): no effect
- effect on nicotine-induced increase in phospholipid synthesis (ATII cells [3]): no effect
- effect on nicotine-induced increase (CCT-α experiment) (ATII cells [4]; rat, in vivo): no effect
- effect on nicotine-induced increase in SP-B protein expression (ATII cells [4]; rat, in vivo): no effect
- effect on nicotine-induced increase (CCT-α experiment) (ATII cells [5]): no effect
- effect on nicotine-induced increase in SP-B expression (ATII cells [5]): unaffected
- block of nicotine-induced alterations in ribose synthesis (ATII cells [8]): completely blocked
- prevention of nicotine-induced changes in de novo palmitate synthesis and acetyl-CoA labeling (ATII cells [8]): completely prevented

Compound: COc1cc2c3cc1Oc1cc(ccc1O)C[C@@H]1c4c(cc(OC)c(O)c4Oc4ccc(cc4)C[C@@H]3N(C)CC2)CC[N+]1(C)C [D-tubocurarine]
- prevention of nicotine-induced decrease in triolein uptake (WI38 cells [7]): completely prevented
- prevention of nicotine-induced decrease in PTHrP binding to its receptor (PTHrP receptor): prevented

Compound: CNC1(C)C2CCC(C2)C1(C)C (centres unmarked) [mecamylamine]
- prevention of nicotine-induced decrease in triolein uptake (WI38 cells [7]; nACh receptor antagonist 1×10^−9 or 1×10^−6 M): not
- prevention of nicotine-induced decrease in PTHrP binding to its receptor (PTHrP receptor; pretreatment with nACh receptor antagonist, nicotine 1×10^−6 M): not
